According to patent US8574563B2 (Bristol-Myers Squibb Company, priority 2006, dated 2013):
Like-named read-outs stand apart in the source and are kept apart here.

Tested on: HCV 1b-377-neo replicon cells
Experiment: HCV replicon assay, HCV 1b-377-neo replicon cells (1b FRET)
Assay type: cell-based, Hepatitis C virus genotype 1b
Conditions: HCV 1b-377-neo replicon cells, HCV 1b genotype; for EC50: read-out: EC50 range against HCV 1b (Table 2, Range)
How it was run: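 Compounds tested in HCV genotype 1b-377-neo replicon cells with a FRET read-out. Cells resistant to a reference NS5A inhibitor through a Y2065H NS5A mutation were run alongside wild-type cells.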

`CC(C)(C)OC(=O)N1CCC(C)(C(=O)N2CCC[C@H]2c2ncc(-c3ccc(-c4ccc(-c5cnc([C@@H]6CCCN6C(=O)[C@@H](c6ccccc6)N6CCCCC6)[nH]5)cc4)cc3)[nH]2)CC1` [Example 107-14, tert-butyl 4-methyl-4-(((2S)-2-(5-(4′-(2-((2S)-1-((2R)-2-phenyl-2-(1-piperidinyl)acetyl)-2-pyrrolidinyl)-1H-imidazol-5-yl)-4-biphenylyl)-1H-imidazol-2-yl)-1-pyrrolidinyl)carbonyl)-1-piperidinecarboxylate] gave an EC50 (Hepatitis C virus) of 0.001 to 0.999 nM.
For `O=C(c1cscn1)N1CCC[C@H]1c1ncc(-c2ccc(-c3ccc(-c4cnc([C@@H]5CCCN5C(=O)[C@@H](c5ccccc5)N5CCCCC5)[nH]4)cc3)cc2)[nH]1` [Example 107-11, 1-((1R)-2-oxo-1-phenyl-2-((2S)-2-(5-(4′-(2-((2S)-1-(1,3-thiazo1-4-ylcarbonyl)-2-pyrrolidinyl)-1H-imidazol-5-yl)-4-biphenylyl)-1H-imidazol-2-yl)-1-pyrrolidinyl)ethyl)piperidine], the EC50 (Hepatitis C virus) was 0.001 to 0.999 nM.
Molecule `C[C@H](NC(=O)[C@@H](c1ccccc1)N(C)C)c1ncc(-c2cnc(-c3ccc(-c4cnc([C@@H]5CCCN5C(=O)[C@@H](c5ccccc5)N(C)C)[nH]4)cc3)cn2)[nH]1` [Example 152j-18, (2R)-2-(dimethylamino)-N-((1S)-1-(5-(5-(4-(2-((2S)-1-((2R)-2-(dimethylamino)-2-phenylacetyl)-2-pyrrolidinyl)-1H-imidazol-5-yl)phenyl)-2-pyrazinyl)-1H-imidazol-2-yl)ethyl)-2-phenylacetamide] has an EC50 (Hepatitis C virus) of 0.001 to 0.999 nM.
`COC(=O)N[C@@H](C(=O)N1CCC[C@H]1c1ncc(-c2ccc(-c3ccc(-c4cnc([C@@H]5CCCN5C(=O)[C@@H](c5ccccc5Cl)N(C)C)[nH]4)cc3)cc2)[nH]1)c1ccccc1Cl` [Example 107-44, methyl ((1R)-1-(2-chlorophenyl)-2-((2S)-2-(5-(4′-(2-((2S)-1-((2R)-2-(2-chloro-phenyl)-2-(dimethylamino)acetyl)-2-pyrrolidinyl)-1H-imidazol-5-yl)-4-biphenylyl)-1H-imidazol-2-yl)-1-pyrrolidinyl)-2-oxoethyl) carbamate] gave an EC50 (Hepatitis C virus) of 0.001 to 0.999 nM.
With `COC(=O)N[C@H](C(=O)N1[C@H](c2ncc(-c3ccc(-c4ccc(-c5cnc([C@@H]6C[C@@H]7C[C@@H]7N6C(=O)[C@@H](NC(=O)OC)C(C)C)[nH]5)cc4)cc3)[nH]2)C[C@@H]2C[C@@H]21)C(C)C` [Example M122, methyl ((1S)-1-(((1S,3S,5S)-3-(5-(4′-(2-((1S,3S,5S)-2-((2S)-2-((methoxycarbonyl)amino)-3-methylbutanoyl)-2-azabicyclo[3.1.0]hex-3-yl)-1H-imidazol-5-yl)-4-biphenylyl)-1H-imidazol-2-yl)-2-azabicyclo[3.1.0]hex-2-yl)carbonyl)-2-methylpropyl)carbamate] the EC50 (Hepatitis C virus) was 1 to 99 nM.
`COC(=O)N[C@H](C(=O)N1CCC[C@H]1c1ncc(-c2ccc(-c3ccc(-c4cnc([C@@H]5CCCN5C(=O)[C@@H](NC(=O)OC)C(C)C)[nH]4)cc3C(=O)O)cc2)[nH]1)C(C)C` [Example M114, 4,4′-bis(2-((2S)-1-(N-(methoxycarbonyl)-L-valyl)-2-pyrrolidinyl)-1H-imidazol-5-yl)-2-biphenylcarboxylic acid] was tested, and the “EC50 range against HCV 1b (Table 2, Range)” value was “>A”.
In the case of `CCN(CC)[C@H](C)C(=O)N1CCC[C@H]1c1ncc(-c2ccc(-c3ccc(-c4cnc([C@@H]5CCCN5C(=O)[C@@H](NC(=O)OC)C(C)C)[nH]4)cc3)cc2F)[nH]1` [Example D43, methyl ((1S)-1-(((2S)-2-(5-(4′-(2-((2S)-1-(N,N-diethyl-D-alanyl)-2-pyrrolidinyl)-1H-imidazol-5-yl)-3′-fluoro-4-biphenylyl)-1H-imidazol-2-yl)-1-pyrrolidinyl)carbonyl)-2-methylpropyl) carbamate], the EC50 (Hepatitis C virus) is reported as 0.001 to 0.999 nM.
In the case of `CN(C)[C@@H](C(=O)N1CCC[C@H]1c1ncc(-c2ccc(-c3ccc(-c4cnc([C@@H]5CCCN5C(=O)C5CCN(C(=O)OC(C)(C)C)CC5)[nH]4)cc3)cc2)[nH]1)c1ccccc1` [Example 94-34, ′tert-butyl 4-(((2S)-2-(5-(4′-(2-((2S)-1-((2R)-2-(dimethylamino)-2-phenylacetyl)-2-pyrrolidinyl)-1H-imidazol-5-yl)-4-biphenylyl)-1H-imidazol-2-yl)-1-pyrrolidinyl)carbonyl)-1-piperidinecarboxylate], the EC50 is reported as 1 to 99 nM.
Molecule `C[C@@H](c1ncc(-c2ccc(-c3ccc(-c4cnc([C@@H]5CCCN5C(=O)[C@@H](c5ccccc5)N(C)C)[nH]4)cc3)cc2)[nH]1)N(C)C(=O)[C@@H](c1ccccc1)N(C)C` [Example 24-18-5, (2R)-2-(dimethylamino)-N-((1S)-1-(5-(4′-(2-((2S)-1-((2R)-2-(dimethylamino)-2-phenylacetyl)-2-pyrrolidinyl)-1H-imidazol-5-yl)-4-biphenylyl)-1H-imidazol-2-yl)ethyl)-N-methyl-2-phenylacetamide] has an EC50 (Hepatitis C virus) of 0.001 to 0.999 nM.
`COC(=O)N[C@@H](C(=O)N1CCC[C@H]1c1ncc(-c2ccc(-c3ccc(-c4cnc([C@@H]5CCCN5C(=O)[C@H](C)N)[nH]4)cc3)cc2)[nH]1)c1ccccc1` [Example 84, methyl ((1R)-2-((2S)-2-(5-(4′-(2-((2S)-1-L-alanyl-2-pyrrolidinyl)-1H-imidazol-5-yl)-4-biphenylyl)-1H-imidazol-2-yl)-1-pyrrolidinyl)-2-oxo-1-phenylethyl)carbamate] gave an EC50 (Hepatitis C virus) of 0.001 to 0.999 nM.
For `Cc1cc(CC(=O)N2CCC[C@H]2c2ncc(-c3ccc(-c4ccc(-c5cnc([C@@H]6CCCN6C(=O)[C@@H](c6ccccc6)N6CCCCC6)[nH]5)cc4)cc3)[nH]2)n[nH]1` [Example 107-16, 1-((1R)-2-((2S)-2-(5-(4′-(2-((2S)-1-((5-methyl-1H-pyrazo1-3-yl)acetyl)-2-pyrrolidinyl)-1H-imidazol-5-yl)-4-biphenylyl)-1H-imidazol-2-yl)-1-pyrrolidinyl)-2-oxo-1-phenylethyl) piperidine], the EC50 (Hepatitis C virus) was 0.001 to 0.999 nM.
Work on `COC(=O)N[C@H](C(=O)N1CCC[C@H]1c1ncc(-c2cnc(-c3ccc(-c4[nH]c([C@@H]5CCCN5C(=O)[C@@H](NC(=O)OC)C5CC5)nc4C(F)(F)F)cc3)nc2)[nH]1)C1CC1` [Example J49, methyl ((1S)-1-cyclopropyl-2-((2S)-2-(5-(4-(5-(2-((2S)-1-((2S)-2-cyclopropyl-2-((methoxycarbonyl)amino)acetyl)-2-pyrrolidinyl)-1H-imidazol-5-yl)-2-pyrimidinyl)phenyl)-4-(trifluoromethyl)-1H-imidazol-2-yl)-l-pyrrolidinyl)-2-oxoethyl)carbamate] yielded an EC50 (Hepatitis C virus) of 0.001 to 0.999 nM.
With `CC[C@@H](C)[C@H](NC)C(=O)N1CCC[C@H]1c1nc(-c2ccc(-c3ccc(-c4cnc([C@@H]5CCCN5C(=O)[C@@H](NC)[C@H](C)CC)[nH]4)cc3)cc2)c[nH]1` [Example F35, (2S,3R)-N,3-dimethyl-1-((2S)-2-(4-(4′-(2-((2S)-1-((2S,3R)-3-methyl-2-(methylamino)pentanoyl)-2-pyrrolidinyl)-1H-imidazol-5-yl)-4-biphenylyl)-1H-imidazol-2-yl)-1-pyrrolidinyl)-1-oxo-2-pentanamine] the EC50 (Hepatitis C virus) was 100 to 999 nM.
For `COC(=O)N[C@@H](C(=O)N1CCC[C@H]1c1ncc(-c2ccc(-c3ccc(-c4cnc([C@@H]5CCCN5C(=O)Cc5cccc(OC)c5)[nH]4)cc3)cc2)[nH]1)c1ccccc1` [Example 84-64, methyl ((1R)-2-((2S)-2-(5-(4′-(2-((2S)-1-((3-methoxyphenyl)acetyl)-2-pyrrolidinyl)-1H-imidazol-5-yl)-4-biphenylyl)-1H-imidazol-2-yl)-1-pyrrolidinyl)-2-oxo-1-phenylethyl)carbamate], the EC50 (Hepatitis C virus) was 0.001 to 0.999 nM.
For `COC(=O)N[C@H](C(=O)N1CCC[C@H]1c1ncc(-c2ccc(-c3ccc(-c4cnc([C@@H]5CCCN5C(=O)CNCc5ccccc5)[nH]4)cc3)cc2)[nH]1)C(C)C` [LS22, methyl ((1S)-1-(((2S)-2-(5-(4′-(2-((2S)-1-(N-benzylglycyl)-2-pyrrolidinyl)-1H-imidazol-5-yl)-4-biphenylyl)-1H-imidazol-2-yl)-1-pyrrolidinyl)carbonyl)-2-methylpropyl)carbamate], the EC50 (Hepatitis C virus) was 0.001 to 0.999 nM.
With `COC(=O)N[C@@H](Cc1c[nH]c2ccccc12)C(=O)N1CCC[C@H]1c1ncc(-c2ccc(-c3ccc(-c4cnc([C@@H]5CCCN5C(=O)[C@@H](NC(=O)OC)C(C)C)[nH]4)cc3)cc2)[nH]1` [cj-99, methyl ((1S)-1-(((2S)-2-(5-(4′-(2-((2S)-1-((2S)-3-(1H-indol-3-yl)-2-((methoxycarbonyl)amino)propanoyl)-2-pyrrolidinyl)-1H-imidazol-5-yl)-4-biphenylyl)-1H-imidazol-2-yl)-1-pyrrolidinyl)carbonyl)-2-methylpropyl)carbamate] the EC50 (Hepatitis C virus) was 0.001 to 0.999 nM.
Work on `COC(=O)N[C@@H](C(=O)N1CCC[C@H]1c1ncc(-c2ccc(-c3ccc(-c4cnc([C@@H]5CCCN5C(=O)[C@H](c5ccccc5)N(C)C)[nH]4)cc3)cc2)[nH]1)c1ccccc1` [Example 38, methyl ((1R)-2-((2S)-2-(5-(4′-(2-((2S)-1-((2S)-2-(dimethylamino)-2-phenylacetyl)-2-pyrrolidinyl)-1H-imidazol-5-yl)-4-biphenylyl)-1H-imidazol-2-yl)-1-pyrrolidinyl)-2-oxo-1-phenylethyl)carbamate] yielded an EC50 (Hepatitis C virus) of 0.001 to 0.999 nM.
With `CCN(CC)[C@@H](COC)C(=O)N1CCC[C@H]1c1ncc(-c2ccc(-c3ccc(-c4cnc([C@@H]5CCCN5C(=O)[C@@H](NC(=O)OC)C(C)C)[nH]4)cc3)cc2)[nH]1` [Example M88, methyl ((1S)-1-(((2S)-2-(5-(4′-(2-((2S)-1-(N,N-diethyl-O-methyl-L-seryl)-2-pyrrolidinyl)-1H-imidazol-5-yl)-4-biphenylyl)-1H-imidazol-2-yl)-1-pyrrolidinyl)carbonyl)-2-methylpropyl)carbamate] the EC50 (Hepatitis C virus) was 1 to 99 nM.
